Measurements reported in patent publication US11739074B2, “Ras inhibitors” (Revolution Medicines, Inc., priority 2019, dated 2023).
Where two headings read alike, the source gives them in different places.

How the values were obtained:
[1] = ester bond, EDCI/HOBt/DIPEA, 16.0 h
[2] = ester bond, 18-membered ring, EDCI/HOBt/DIEA, 25.0 °C

CC(C)[Si](Oc1cc2cc(c1)-c1ccc3[nH]c(I)c(c3c1)CC(C)(C)COC(=O)[C@@H]1CCCN(N1)C(=O)[C@@H](NC(=O)OC(C)(C)C)C2)(C(C)C)C(C)C
ring closure, yield of all isomers ([1]; from CC(C)[Si](Oc1cc(C[C@H](NC(=O)OC(C)(C)C)C(=O)N2CCC[C@@H](C(=O)O)N2)cc(-c2ccc3[nH]c(I)c(CC(C)(C)CO)c3c2)c1)(C(C)C)C(C)C, DCM, 22.8 mM, 25.0 °C): 50%

CC1(C)COC(=O)[C@@H]2CCCN(N2)C(=O)[C@@H](NC(=O)OC(C)(C)C)Cc2cccc(c2)-c2ccc3[nH]c(I)c(c3c2)C1
ring closure, yield of all isomers ([1]; from CC(C)(CO)Cc1c(I)[nH]c2ccc(-c3cccc(C[C@H](NC(=O)OC(C)(C)C)C(=O)N4CCC[C@@H](C(=O)O)N4)c3)cc12, DCM, 12.8 mM, 0.0 °C): 79.8%

CCn1c(-c2cc(N3CCN(C(=O)OCc4ccccc4)CC3)cnc2[C@H](C)OC)c2c3cc(ccc31)-c1csc(n1)C[C@H](NC(=O)OC(C)(C)C)C(=O)N1CCC[C@H](N1)C(=O)OCC(C)(C)C2
ring closure, isolated yield ([2]; from CCn1c(-c2cc(N3CCN(C(=O)OCc4ccccc4)CC3)cnc2[C@H](C)OC)c(CC(C)(C)CO)c2cc(-c3csc(C[C@H](NC(=O)OC(C)(C)C)C(=O)N4CCC[C@@H](C(=O)O)N4)n3)ccc21, MeCN, 10.3 mM): 54.9%
ring closure, yield of all isomers ([1]; from CCn1c(-c2cc(N3CCN(C(=O)OCc4ccccc4)CC3)cnc2[C@H](C)OC)c(CC(C)(C)CO)c2cc(-c3csc(C[C@H](NC(=O)OC(C)(C)C)C(=O)N4CCC[C@@H](C(=O)O)N4)n3)ccc21, MeCN, 10.34 mM, 25.0 °C): 54.9%

CCn1c(-c2cccnc2[C@H](C)OC)c2c3cc(ccc31)-c1cc(CF)cc(c1)C[C@H](NC(=O)OC(C)(C)C)C(=O)N1CCC[C@H](N1)C(=O)OCC(C)(C)C2
ring closure, isolated yield ([2]; from CCn1c(-c2cccnc2[C@H](C)OC)c(CC(C)(C)CO)c2cc(-c3cc(CF)cc(C[C@H](NC(=O)OC(C)(C)C)C(=O)N4CCC[C@@H](C(=O)O)N4)c3)ccc21, DCM, 23.7 mM): 65%
ring closure, yield of all isomers ([1]; from CCn1c(-c2cccnc2[C@H](C)OC)c(CC(C)(C)CO)c2cc(-c3cc(CF)cc(C[C@H](NC(=O)OC(C)(C)C)C(=O)N4CCC[C@@H](C(=O)O)N4)c3)ccc21, DCM, 23.73 mM, 25.0 °C): 65%
